Patent US10377719B2, “Trypanosomes inhibitors” (Hoffmann-La Roche Inc., priority 2015, dated 2019)

Tested on: Trypanosoma brucei rhodesiense STIB900
Test: Activity against Trypanosoma brucei rhodesiense STIB900 (Alamar Blue assay)
Assay type: cell-based
Settings: Trypanosoma brucei, 70 h, bloodstream forms of T. b. rhodesiense STIB 900, 70 h incubation
Experimental: Activity Against Trypanosoma brucei Rhodesiense STIB900
This stock was isolated in 1982 from a human patient in Tanzania and after several mouse passages cloned and adapted to axenic culture conditions (Baltz, T., D. Baltz, C. Giroud, and J. Crockett. 1985, Cultivation in a semi-defined medium of animal infective forms of Trypanosoma brucei, T. equiperdum, T. evansi, T. rhodesiense and T. gambiense. EMBO Journal 4:1273-1277). Minimum Essential Medium (50 μl) supplemented with 25 mM HEPES, 1 g/l additional glucose, 1% MEM non-essential amino acids (100×), 0.2 mM 2-mercaptoethanol, 1 mM Na-pyruvate and 15% heat inactivated horse serum was added to each well of a 96-well microtiter plate. Serial drug dilutions of eleven 3-fold dilution steps covering a range from […] were prepared. Then 4×10^3 bloodstream forms of T. b. rhodesiense STIB 900 in 50 μl was added to each well and the plate incubated at 37° C. under a 5% CO2 atmosphere for 70 h. 10 μl Alamar Blue (resazurin, 12.5 mg in 100 ml double-distilled water) was then added to each well and incubation continued for a further 2-4 h (Räz, B., M. Iten, Y. Grether-Buhler, R. Kaminsky, and R. Brun. 1997, The Alamar Blue assay to determine drug sensitivity of African trypanosomes (T.b. rhodesiense and T.b. gambiense) in vitro. Acta Trop 68:139-47). Then the plates were read with a Spectramax Gemini XS microplate fluorometer (Molecular Devices Cooperation, Sunnyvale, Calif., USA) using an excitation wave length of 536 nm and an emission wave length of 588 nm. The IC50 values were calculated by linear regression (Huber, W. Koella, J. C. 1993, A comparison of the three methods of estimating EC50 in studies of drug resistance of malaria parasites. Acta Trop. 55, 257-261) from the sigmoidal dose inhibition curves using SoftmaxPro software (Molecular Devices Cooperation, Sunnyvale, Calif., USA). Melarsoprol is used as control.

Row | Structure (SMILES) | IC50 [µM]
1 | N#CC1(NC(=O)[C@H](Cc2ccc(OC(F)(F)F)c(Cl)c2)NC(=O)c2cc(C(F)(F)F)nn2CC(F)F)CC1 [Example 1, (S)—N-(3-(3-chloro-4-(trifluoromethoxy)phenyl)-1-(1-cyanocyclopropylamino)-1-oxopropan-2-yl)-1-(2,2-difluoroethyl)-3-(trifluoromethyl)-1H-pyrazole-5-carboxamide] | 0.003
2 | Cn1nc(C(F)(F)F)cc1C(=O)N[C@@H](Cc1ccc(OC(F)(F)F)c(Cl)c1)C(=O)NC1(C#N)CC1 [Example 2, (S)—N-(3-(3-chloro-4-(trifluoromethoxy)phenyl)-1-(1-cyanocyclopropylamino)-1-oxopropan-2-yl)-1-methyl-3-(trifluoromethyl)-1H-pyrazole-5-carboxamide] | 0.005
3 | Cc1cc(C(=O)N[C@@H](Cc2ccc(OC(F)(F)F)c(Cl)c2)C(=O)NC2(C#N)CC2)n(C)n1 [Example 3, (S)—N-(3-(3-chloro-4-(trifluoromethoxy)phenyl)-1-(1-cyanocyclopropylamino)-1-oxopropan-2-yl)-1,3-dimethyl-1H-pyrazole-5-carboxamide] | 0.071
4 | Cn1nc(C2CC2)cc1C(=O)N[C@@H](Cc1ccc(OC(F)(F)F)c(Cl)c1)C(=O)NC1(C#N)CC1 [Example 4, (S)—N-(3-(3-chloro-4-(trifluoromethoxy)phenyl)-1-(1-cyanocyclopropylamino)-1-oxopropan-2-yl)-3-cyclopropyl-1-methyl-1H-pyrazole-5-carboxamide] | 0.005
5 | Cn1nc(C(C)(C)C)cc1C(=O)N[C@@H](Cc1ccc(OC(F)(F)F)c(Cl)c1)C(=O)NC1(C#N)CC1 [Example 5, (S)-3-tert-butyl-N-(3-(3-chloro-4-(trifluoromethoxy)phenyl)-1-(1-cyanocyclopropylamino)-1-oxopropan-2-yl)-1-methyl-1H-pyrazole-5-carboxamide] | 4.43
6 | N#CC1(NC(=O)[C@H](Cc2ccc(OC(F)(F)F)c(Cl)c2)NC(=O)c2ccn(-c3ccc(F)cc3)n2)CC1 [Example 6, (S)—N-(3-(3-chloro-4-(trifluoromethoxy)phenyl)-1-(1-cyanocyclopropylamino)-1-oxopropan-2-yl)-1-(4-fluorophenyl)-1H-pyrazole-3-carboxamide] | 0.05
7 | Cn1nc(-c2ccccc2)cc1C(=O)N[C@@H](Cc1ccc(OC(F)(F)F)c(Cl)c1)C(=O)NC1(C#N)CC1 [Example 7, (S)—N-(3-(3-chloro-4-(trifluoromethoxy)phenyl)-1-(1-cyanocyclopropylamino)-1-oxopropan-2-yl)-1-methyl-3-phenyl-1H-pyrazole-5-carboxamide] | 0.02
8 | Cc1oc(-c2ccc(Cl)cc2)nc1C(=O)N[C@@H](Cc1ccc(OC(F)(F)F)c(Cl)c1)C(=O)NC1(C#N)CC1 [Example 8, (S)—N-(3-(3-chloro-4-(trifluoromethoxy)phenyl)-1-(1-cyanocyclopropylamino)-1-oxopropan-2-yl)-2-(4-chlorophenyl)-5-methyloxazole-4-carboxamide] | 0.068
9 | N#CC1(NC(=O)[C@H](Cc2ccc(OC(F)(F)F)c(Cl)c2)NC(=O)c2cnn(-c3ccc(F)cc3)n2)CC1 [Example 9, (S)—N-(3-(3-chloro-4-(trifluoromethoxy)phenyl)-1-(1-cyanocyclopropylamino)-1-oxopropan-2-yl)-2-(4-fluorophenyl)-2H-1,2,3-triazole-4-carboxamide] | 0.009
10 | N#CC1(NC(=O)[C@H](Cc2ccc(OC(F)(F)F)c(Cl)c2)NC(=O)c2cc(-c3ccccc3Cl)n[nH]2)CC1 [Example 10, (S)—N-(3-(3-chloro-4-(trifluoromethoxy)phenyl)-1-(1-cyanocyclopropylamino)-1-oxopropan-2-yl)-3-(2-chlorophenyl)-1H-pyrazole-5-carboxamide] | 0.013
11 | N#CC1(NC(=O)[C@H](Cc2ccc(OC(F)(F)F)c(Cl)c2)NC(=O)c2cc(-c3ccc(F)cc3)n[nH]2)CC1 [Example 11, (S)—N-(3-(3-chloro-4-(trifluoromethoxy)phenyl)-1-(1-cyanocyclopropylamino)-1-oxopropan-2-yl)-3-(4-fluorophenyl)-1H-pyrazole-5-carboxamide] | 0.278
